Measured values published in US20260060991A1, “METHODS AND COMPOSITIONS FOR INHIBITING CLONAL HEMATOPOIESIS” (The Jackson Laboratory, priority 2022, published 2026).
“Also recorded” adds a separate entry of the source.

Test system: WT recipient mice transplanted with Dnmt3a-mutant cells (Dnmt3a;Npm1-mutant)
Assay: Navitoclax treatment of mice transplanted with Dnmt3a-mutant cells, followed by tamoxifen induction of the Npm1 mutation (progression from clonal hematopoiesis to myeloid malignancy)
Assay type: in vivo, mouse
Method: FIG. 6A-6E: Navitoclax treatment attenuates Dnmt3a-mutant peripheral blood myeloid cell overproduction. (FIG. 6A) Dnmt3a-mutant cells were transplanted into wild type recipient mice, 12 weeks post-transplant Navitoclax or vehicle control was administered, and 2 weeks later the Npm1 mutation was induced in the Dnmt3a-mutant cells. (FIG. 6B) Frequency of donor-derived mature Dnmt3a;Npm1-mutant myeloid cells in peripheral blood of Navitoclax or vehicle control treated transplant mice. (FIG. 6C) Engraftment of donor-derived mature Dnmt3a;Npm1-mutant myeloid cells in BM (FIG. 6D) β-gal expression in BMSCs, and (FIG. 6E) monocyte count in navitoclax versus vehicle treated mice.
Next, the functional importance of BMSC senescence in Dnmt3a-mutant transformation to AML was evaluated. Dnmt3a-mutant cells were transplanted into WT recipient mice, administered the senolytic Navitoclax or vehicle control, and then induced the AML driver mutation Npm1^c in vivo.
Using the senolytic Navitoclax, targeting Bcl-2/Bcl-xL, we evaluated the extent to which removing senescent cells caused by Dnmt3a-mutant haematopoiesis in vivo would delay progression from clonal hematopoiesis to myeloid malignancy. Briefly, Dnmt3a-mutant cells (cells from BM derived from CD45.2^+; Dnmt3a^R787H/+ MxCre; Npm1^frt-cA/+Flpo^ERT mice) were transplanted into recipient mice (CD45.1^+ mice) (FIG. 6A). After 12 weeks (‘Pre-senolytic’), recipient mice were either administered vehicle control or the senolytic agent, navitoclax, by oral gavage to selectively deplete senescent cells. Navitoclax was administered at a dosage of 50 mg/kg/day for 1 week, followed by 2 weeks of no treatment, followed by 1 week of treatment. Blood samples were collected from Pre-senolytic mice before administration of vehicle control or navitoclax. Following navitoclax treatment (‘Post-senolytic’), the AML driver mutation Npm1^cA/+ (‘TAM’) was induced using tamoxifen to initiate progression to myeloid malignancy. Blood samples were collected from Post-senolytic mice and TAM mice. Tamoxifen was administered for a period of 1 week. Blood samples were taken from tamoxifen treated mice (“Post-Npm1”).

navitoclax
frequency of donor (CD45.2+) cells in the BM (5 months after tamoxifen treatment (harvest), relative to vehicle treated controls, FIG. 6C): lower frequency
BMSC senescence (measured by β-gal) (5 months after tamoxifen treatment (harvest), relative to vehicle treated controls, FIG. 6D): maintained lower BMSC senescence
monocyte ("white blood cell" or "WBC") count (5 months after tamoxifen treatment (harvest), relative to vehicle treated controls, FIG. 6E): reduced monocyte
frequency of myeloid cells (CD45.2+) in the peripheral blood (PB) (Post-Npm1 sampling, navitoclax 50 mg/kg/day oral gavage, 1 week on, 2 weeks off, FIG. 6B): reduced frequency
peripheral blood myeloid cell overproduction (concurrent with transformation of Dnmt3a;Npm1-mutant cells, vs vehicle control): reduced; also recorded: attenuates
